From article PMC1976805, “Preclinical pharmacokinetics of benznidazole” (British Journal of Cancer, 1984)
Several values for one entry are separate records, joined by “and”; a condition that tells them apart may be missing. Equal entries are not always repeated. Where two headings read alike, the source gives them in different places.

Experiments:
[1] = Penetration into whole brain of BALB/c mice bearing EMT6 tumours; assay type: in vivo, mouse; details: for brain/whole plasma ratio (% ± s.e.) / brain/whole plasma ratio (s.e., n=5): 650 mg kg-1 i.p.; for tumour/brain ratio (% + s.e.): EMT6, 650 mg kg-1 i.p.; for brain/whole plasma ratio (s.e., n=5): experiment b; for Kp: male, BALB/c, mouse, whole brain / whole plasma
Excerpt: (§1) Br. J. Cancer (1984), 50, 291-303 Preclinical pharmacokinetics of benznidazole P. Workman', R.A.S. White2, M.I. Walton', L.N. Owen2* & P.R. Twentyman' 1MRC Clinical Oncology and Radiotherapeutics Unit, MRC Centre, Hills Road, Cambridge CB2 2QH, and 2Department of Clinical Veterinary Medicine, University of Cambridge, Madingley Road, Cambridge CB3 OES, UK. […] We have investigated the detailed pharmacokinetics of benznidazole in mice, dogs and sheep to provide a data base for the estimation of doses required for chemosensitization in man. Pharmacokinetic behaviour was linear except at high doses in mice. Absorption was fairly rapid and bioavailability was complete following both i.p. administration in mice and oral administration in dogs. Elimination t4 values were longer than for MISO, being 90 min in mice, 4-5 h in sheep and 9-11 h in dogs. At doses giving linear kinetics, peak whole plasma concentrations per administered mgkg-1 were 0.75 jigml-1 for the i.p. route in mice and 1.8jugmlP' for the oral route in dogs. Though between 39 and 59% of plasma benznidazole was bound to protein, tissue penetration was generally good. Tissue/whole plasma ratios ranged from 59-99% for transplantable mouse tumours and from 14-70% for spontaneous dog neoplasms. Nervous tissue penetration was similar to that in tumours: brain/whole plasma ratios averaged between 61 and 76% in mice and 42% in dogs, while peripheral nerve/whole plasma ratios in dogs averaged 74%. Mean liver/whole plasma ratios were 42% and 71% in BALB/c and C3H/He mouse strains respectively. Only -5% of the administered dose was excreted unchanged in the urine, indicating the likelihood of extensive metabolism. […] Enhancement of CCNU response is likely to require circulating benznidazole concentrations of 10-30 pgml-1 and we predict that these will be obtained with oral doses of 6-20 mgkg- 1 in man. […] This enhancement, or chemosensitization, is usually greater than that seen in dose-limiting normal tissues, resulting in an improved therapeutic index. Because of the relatively high doses of MISO usually required for chemosensitization in mice (see above refs), and also because of its neurotoxicity in man (Dische et al., 1977), we have been interested in finding an improved chemosensitizer. […] The lipophilic ana- logue benznidazole (N-benzyl-(2-nitroimidazolyl) acetamide, Ro 07-1051; Radanil; Roche), the structure of which is shown in Figure 1, was selected for detailed study because of its ability to *Present address: Animal Health Trust, Small Animals Centre, Lanwades Park, Kennett, Newmarket, Suffolk CB8 7PN, UK. Correspondence: P. Workman. […] These findings have been confirmed independently by Siemann et al. (1983). Although benznidazole is used quite widely in South America to treat patients with the trypanosomal infection Chagas' disease or with mucotaneous Leishmaniasis (Barclay et al., 1978; Cerisola et al., 1978; Coura et al., 1978; Fava et al., 1978), apart from our preliminary studies (White et al., 1982) the only published data on its pharmaco- kinetics are for human plasma concentrations measured by polarography (Raaflub & Ziegler, 1979; Raaflub, 1980). Here we describe the pharmacokinetics of benznidazole in the mouse, sheep and dog, as determined by high-performance liquid chromatography (HPLC). […] The Macmillan Press Ltd., 1984 292 P. WORKMAN et al. particularly on plasma and tumour concentrations, have been used as a basis for the estimation of the benznidazole doses required in a Phase I trial of benznidazole plus CCNU, at present ongoing in our Unit. Materials and methods Animals and tumours Adult inbred male BALB/c mice were obtained from OLAC (Southern) Ltd. (Bicester, UK) and adult inbred C3H/He mice of both sexes from OLAC and our own breeding colony. Mice were housed in plastic cages on sawdust bedding made from soft white woods, and allowed laboratory chow and water ad lib. They were used at 20-35 g body wt.

[2] = cited from earlier work
[3] = Whole plasma pharmacokinetics in sheep (HPLC); assay type: in vivo; details: for half-life: male, Clun Forest/Border Leicester cross, sheep, plasma, iv
Excerpt: Br. J. Cancer (1984), 50, 291-303 Preclinical pharmacokinetics of benznidazole P. Workman', R.A.S. White2, M.I. Walton', L.N. Owen2* & P.R. Twentyman' 1MRC Clinical Oncology and Radiotherapeutics Unit, MRC Centre, Hills Road, Cambridge CB2 2QH, and 2Department of Clinical Veterinary Medicine, University of Cambridge, Madingley Road, Cambridge CB3 OES, UK. […] We have investigated the detailed pharmacokinetics of benznidazole in mice, dogs and sheep to provide a data base for the estimation of doses required for chemosensitization in man. Pharmacokinetic behaviour was linear except at high doses in mice. Absorption was fairly rapid and bioavailability was complete following both i.p. administration in mice and oral administration in dogs. Elimination t4 values were longer than for MISO, being 90 min in mice, 4-5 h in sheep and 9-11 h in dogs. At doses giving linear kinetics, peak whole plasma concentrations per administered mgkg-1 were 0.75 jigml-1 for the i.p. route in mice and 1.8jugmlP' for the oral route in dogs. Though between 39 and 59% of plasma benznidazole was bound to protein, tissue penetration was generally good. Tissue/whole plasma ratios ranged from 59-99% for transplantable mouse tumours and from 14-70% for spontaneous dog neoplasms. Nervous tissue penetration was similar to that in tumours: brain/whole plasma ratios averaged between 61 and 76% in mice and 42% in dogs, while peripheral nerve/whole plasma ratios in dogs averaged 74%. Mean liver/whole plasma ratios were 42% and 71% in BALB/c and C3H/He mouse strains respectively. Only -5% of the administered dose was excreted unchanged in the urine, indicating the likelihood of extensive metabolism. […] Enhancement of CCNU response is likely to require circulating benznidazole concentrations of 10-30 pgml-1 and we predict that these will be obtained with oral doses of 6-20 mgkg- 1 in man. […] This enhancement, or chemosensitization, is usually greater than that seen in dose-limiting normal tissues, resulting in an improved therapeutic index. Because of the relatively high doses of MISO usually required for chemosensitization in mice (see above refs), and also because of its neurotoxicity in man (Dische et al., 1977), we have been interested in finding an improved chemosensitizer. […] The lipophilic ana- logue benznidazole (N-benzyl-(2-nitroimidazolyl) acetamide, Ro 07-1051; Radanil; Roche), the structure of which is shown in Figure 1, was selected for detailed study because of its ability to *Present address: Animal Health Trust, Small Animals Centre, Lanwades Park, Kennett, Newmarket, Suffolk CB8 7PN, UK. Correspondence: P. Workman. […] These findings have been confirmed independently by Siemann et al. (1983). Although benznidazole is used quite widely in South America to treat patients with the trypanosomal infection Chagas' disease or with mucotaneous Leishmaniasis (Barclay et al., 1978; Cerisola et al., 1978; Coura et al., 1978; Fava et al., 1978), apart from our preliminary studies (White et al., 1982) the only published data on its pharmaco- kinetics are for human plasma concentrations measured by polarography (Raaflub & Ziegler, 1979; Raaflub, 1980). Here we describe the pharmacokinetics of benznidazole in the mouse, sheep and dog, as determined by high-performance liquid chromatography (HPLC). […]

plasma proteins = assay: In vivo plasma protein binding in dogs (plasma ultrafiltrate); details: dog; for fraction unbound: plasma
Excerpt: as §1

Aqueous solubility = assay type: physicochemical
[4] = Penetration into mouse liver; assay type: in vivo; details: for liver/whole plasma ratio, overall mean / liver concentration / whole plasma concentration / Kp at 0.5 h / Kp at 3 h / Kp at 6 h / Kp: 78 mg kg-1 i.p.; for liver/whole plasma ratio, overall mean / Kp: 0.5-6 h; for Kp at 0.5 h / Kp at 3 h / Kp at 6 h / Kp: mouse, ip; for Kp at 0.5 h / Kp at 3 h / Kp at 6 h: liver / whole plasma, read-out: liver/whole plasma ratio; for Kp: liver, read-out: liver/whole plasma ratio, overall mean
Excerpt: as §1

[5] = man, average daily dose 3.5 mg kg-1, literature

brain/whole plasma ratio (% ± s.e.) ([1]; Exp 1 (a), n=16): 61+5%
tumour/brain ratio (% + s.e.) ([1]; Exp 1 (a), n=16): 120+33%
brain/whole plasma ratio (% ± s.e.) ([1]; Exp 2 (b), n=20): 68+3%
tumour/brain ratio (% + s.e.) ([1]; Exp 2 (b), n=20): 116+5%
brain/whole plasma ratio (% ± s.e.) ([1]; Exp 3 (c), n=20): 76+4%
tumour/brain ratio (% + s.e.) ([1]; Exp 3 (c), n=20): 99+7%
brain/whole plasma ratio (s.e., n=5) ([1]; 45 min): 56+3%
brain/whole plasma ratio (s.e., n=5) ([1]; 75 min): 69+3%
brain/whole plasma ratio (s.e., n=5) ([1]; 105 min): 71+5%
brain/whole plasma ratio (s.e., n=5) ([1]; 135 min): 75 +5%
Kp ([1]; mice, discussion comparison with MISO, read-out: brain/whole plasma ratio): 0.68
Kp ([1]; read-out: brain/whole plasma ratios, range of averages): 0.61 to 0.76
half-life ([3]; 4 mg/kg, sheep 1, 4 mg kg-1 i.v., read-out: elimination t1/2 (95% confidence limits) (converted)): 5.2 h
half-life ([3]; 4 mg/kg, sheep 2, 4 mg kg-1 i.v., read-out: elimination t1/2 (95% confidence limits) (converted)): 3.8 h
half-life ([3]; summary value, read-out: elimination t1/2): 4 to 5 h
peak whole plasma concentration ([3]; sheep 1, 4 mg kg-1 i.v.): 3.6 µg/mL
peak whole plasma concentration ([3]; sheep 2, 4 mg kg-1 i.v.): 2.5 µg/mL
fraction unbound (plasma proteins; beagle, po, 50 mg kg-1, dog E, 50 mg kg-1 oral, full time course, read-out: protein binding (mean+s.e., n=8) (converted)): 0.45
fraction unbound (plasma proteins; beagle, po, 50 mg kg-1, dog F, 50 mg kg-1 oral, full time course, read-out: protein binding (mean+s.e., n=8) (converted)): 0.48
fraction unbound (plasma proteins; collie crossbred, beagle, iv, dogs, apart from the two i.v. time courses, read-out: in vivo protein binding, range): 0.41 to 0.48
fraction unbound (plasma proteins; collie crossbred, iv, 5 mg kg-1, dog C, 5 mg kg-1 i.v., full time course, read-out: protein binding (mean+s.e., n=8) (converted)): 0.28
fraction unbound (plasma proteins; collie crossbred, iv, 5 mg kg-1, dog D, 5 mg kg-1 i.v., full time course, read-out: protein binding (mean+s.e., n=8) (converted)): 0.26
fraction unbound (plasma proteins; collie crossbred, po, 25 mg kg-1, dog A, 25 mg kg-1 oral, mean of 4 and 5 h values, read-out: protein binding (converted)): 0.47
fraction unbound (plasma proteins; collie crossbred, po, 25 mg kg-1, dog B, 25 mg kg-1 oral, mean of 4 and 5 h values, read-out: protein binding (converted)): 0.41
fraction unbound (plasma proteins; collie crossbred, po, 25 mg kg-1, dog C, 25 mg kg-1 oral, mean of 4 and 5 h values, read-out: protein binding (converted)): 0.45
fraction unbound (plasma proteins; collie crossbred, po, 25 mg kg-1, dog D, 25 mg kg-1 oral, mean of 4 and 5 h values, read-out: protein binding (converted)): 0.47
binding to plasma proteins (plasma proteins; discussion summary): 59%
aqueous solubility (Aqueous solubility): low aqueous solubility
liver/whole plasma ratio, overall mean ([4]; BALB/c): 41.7%
liver concentration ([4]; BALB/c, 0.5 h): 20.8 µg/g
whole plasma concentration ([4]; BALB/c, 0.5 h): 45.3 µg/mL
liver concentration ([4]; BALB/c, 3.0 h): 10.3 µg/g
whole plasma concentration ([4]; BALB/c, 3.0 h): 29.8 µg/mL
liver concentration ([4]; BALB/c, 6.0 h): 8.2 µg/g
whole plasma concentration ([4]; BALB/c, 6.0 h): 12.2 µg/mL
liver/whole plasma ratio, overall mean ([4]; C3H/He, n=29): 70.6% and 71 + 8%
liver concentration ([4]; C3H/He, 0.5 h): 25.2 µg/g
whole plasma concentration ([4]; C3H/He, 0.5 h): 33.9 µg/mL
liver concentration ([4]; C3H/He, 3.0 h): 17.3 µg/g
whole plasma concentration ([4]; C3H/He, 3.0 h): 34.1 µg/mL
liver concentration ([4]; C3H/He, 6.0 h): 17.8 µg/g
whole plasma concentration ([4]; C3H/He, 6.0 h): 21.1 µg/mL
Kp at 0.5 h ([4]; both sexes, C3H/He, 78 mg kg-1, C3H/He, 0.5 h): 0.758
Kp at 3 h ([4]; both sexes, C3H/He, 78 mg kg-1, C3H/He, 3.0 h): 0.533
Kp at 6 h ([4]; both sexes, C3H/He, 78 mg kg-1, C3H/He, 6.0 h): 0.843
Kp ([4]; both sexes, C3H/He, 78 mg kg-1, C3H/He, n=29): 0.71
Kp at 0.5 h ([4]; male, BALB/c, 78 mg kg-1, BALB/c, 0.5 h): 0.466
Kp at 3 h ([4]; male, BALB/c, 78 mg kg-1, BALB/c, 3.0 h): 0.348
Kp at 6 h ([4]; male, BALB/c, 78 mg kg-1, BALB/c, 6.0 h): 0.439
Kp ([4]; male, BALB/c, 78 mg kg-1, BALB/c): 0.42
peak liver concentration that would be produced ([4]; mice, 13 mg kg-1 i.p.): ~7 µg/g
liver concentration ([4]; mice, discussion summary): 21 µg/g
Structure (SMILES): O=C(Cn1ccnc1[N+](=O)[O-])NCc1ccccc1 [benznidazole, N-benzyl-(2-nitroimidazolyl) acetamide]
mean t1/2 ([2]; humans, low doses, polarographic analysis, ref Raaflub & Ziegler (1979) and Raaflub (1980)): 12 to 14 h
mean steady state maximum plasma concentration (s.e., n=6) [2, 5]: 12.4 ± 0.7 µg/mL
mean steady state minimum plasma concentration (s.e., n=6) [2, 5]: 8.3 ± 0.6 µg/mL
peak time ([2]; man, low oral doses, ref Raaflub & Ziegler, 1979): 3 to 4 h
mean peak plasma concentration per administered mg kg-1 (s.e., n=7) ([2]; man, oral, low doses (mean 1.73 mg kg-1), ref Raaflub & Ziegler, 1979): 1.48 + 0.06 µg ml-1
